{"source": "patent US20090076201A1", "about": "“(METH) ACRYLOYLOXYTETRAHYDROFURANS AND PROCESS FOR PRODUCTION THEREOF” (Mitsubishi Chemical Corporation, priority 2005, published 2009)", "experiment": "Solubility test in heptane and aqueous solvents at 26° C.", "conditions": "grams of solute dissolved in 100 g of solvent", "protocol": "A solubility test of erythritan monomethacrylate (HOTHFMA) in aqueous solvents shown in the following table was carried out at a temperature of 26° C. In this connection, for the purpose of comparison, data on tetrahydrofurfuryl methacrylate (TFMA) and α-methacryloyl-γ-butyrolactone (GBLMA) are also shown. The numeric values in the table represent grams of individual solutes dissolved in 100 g of each solvent.", "data": [{"compound": "C=C(C)C(=O)OC1COCC1O", "note": "(stereo not drawn) [HOTHFMA, 3-methacryloyloxy-4-hydroxytetrahydrofuran]", "values": [{"measurement": "Solubility (26° C.) in H2O", "setting": "solvent H2O", "result": ">395", "unit": "g/100 g solv."}, {"measurement": "Solubility (26° C.) in H2O/MeOH 4/1 (wt)", "setting": "solvent H2O/MeOH 4/1 (wt)", "result": ">353", "unit": "g/100 g solv."}, {"measurement": "Solubility (26° C.) in Heptane", "setting": "solvent heptane", "result": 1.74, "unit": "g/100 g solv."}]}]}
